Laboratory results published in ChEMBL document CHEMBL2021792, “Tetrahydro-naphthols as orally available TRPV1 inhibitors” (Bioorg Med Chem Lett, 2012).

Key:
[1] = biological target: Transient receptor potential cation channel subfamily V member 1 (Homo sapiens, UniProt Q8NER1); experiment: Antagonist activity at human TRPV1 expressed in CHOluc9aeq cells assessed as inhibition of capsaicin-stimulated response by aequorin and CRE-lucifearase reporter gene assay; type: functional, cell-based
[2] = AUC in rat at 1 mg/kg, po; type: ADME, organism-based; set-up: dose 1 mg/kg, route oral; details: plasma
[3] = tested on: Plasma; experiment: Unbound fraction in rat plasma; type: ADME, cell-free
[4] = Oral bioavailability in rat at 1 mg/kg; type: ADME, organism-based; details: in vivo

Chain of Transient receptor potential cation channel subfamily V member 1 (Q8NER1 whole entry): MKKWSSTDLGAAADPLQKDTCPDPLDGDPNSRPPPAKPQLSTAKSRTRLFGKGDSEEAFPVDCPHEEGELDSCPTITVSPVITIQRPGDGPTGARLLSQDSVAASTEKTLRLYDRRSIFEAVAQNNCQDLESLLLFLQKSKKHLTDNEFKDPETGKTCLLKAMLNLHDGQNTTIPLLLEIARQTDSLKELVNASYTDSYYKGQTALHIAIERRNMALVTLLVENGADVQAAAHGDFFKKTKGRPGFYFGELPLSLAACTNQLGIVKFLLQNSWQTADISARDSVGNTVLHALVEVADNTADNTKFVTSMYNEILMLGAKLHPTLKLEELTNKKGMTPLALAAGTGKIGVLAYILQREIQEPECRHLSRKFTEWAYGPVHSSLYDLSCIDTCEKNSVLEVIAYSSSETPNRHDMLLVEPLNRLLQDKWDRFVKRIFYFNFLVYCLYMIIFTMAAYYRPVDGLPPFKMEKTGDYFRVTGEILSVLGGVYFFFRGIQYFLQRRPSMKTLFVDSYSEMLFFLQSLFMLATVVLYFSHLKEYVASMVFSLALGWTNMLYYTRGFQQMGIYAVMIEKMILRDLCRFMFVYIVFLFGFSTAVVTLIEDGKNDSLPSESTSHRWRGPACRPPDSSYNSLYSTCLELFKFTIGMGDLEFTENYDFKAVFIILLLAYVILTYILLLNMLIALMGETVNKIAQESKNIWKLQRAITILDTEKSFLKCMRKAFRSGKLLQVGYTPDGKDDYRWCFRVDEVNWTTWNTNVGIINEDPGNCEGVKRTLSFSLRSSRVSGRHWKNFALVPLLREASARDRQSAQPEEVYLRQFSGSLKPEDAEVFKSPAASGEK

SMILES | IC50 [1] [nM] | AUC [2] [ng·h/mL] | other results
Nc1cc2c(NC(=O)Nc3ccc(Cl)c(C(F)(F)F)c3)cccc2cc1Cl | > 1000 |  | 
NS(=O)(=O)c1ccc2cccc(NC(=O)Nc3ccc(Cl)c(C(F)(F)F)c3)c2c1 | 710 |  | 
O=C(Nc1ccc(Cl)c(C(F)(F)F)c1)Nc1cccc2c(O)cccc12 | 45 |  | 
O=C(Nc1ccc(Cl)c(C(F)(F)F)c1)Nc1cccc2cc[nH]c12 | 67 | 176 | 
NS(=O)(=O)c1ccccc1NC(=O)Nc1ccc(Cl)c(C(F)(F)F)c1 | > 1000 |  | 
O=C(Nc1ccc(Cl)c(C(F)(F)F)c1)Nc1cccc2ccc(C(=O)O)cc12 | 84 |  | 
O=C(Nc1ccc(Cl)c(C(F)(F)F)c1)Nc1ccccc1CCO | 56 | 374 | 
O=C(Nc1ccc(Cl)c(C(F)(F)F)c1)Nc1ccc2ccc(O)cc2c1 | 130 |  | 
CS(=O)(=O)Nc1ccc2cccc(NC(=O)Nc3ccc(Cl)c(C(F)(F)F)c3)c2c1 | > 1000 | 709 | 
NS(=O)(=O)Cc1ccccc1NC(=O)Nc1ccc(Cl)c(C(F)(F)F)c1 | 460 |  | 
Cc1nc2cccc(NC(=O)Nc3ccc(Cl)c(C(F)(F)F)c3)c2[nH]1 | 58 |  | 
O=C(Nc1ccc(Cl)c(C(F)(F)F)c1)Nc1ccccc1CO | 330 |  | 
Nc1ccc2cccc(NC(=O)Nc3ccc(Cl)c(C(F)(F)F)c3)c2c1 | 34 | 217 | 
O=C(Nc1ccc(Cl)c(C(F)(F)F)c1)Nc1cccc2ccc(O)c(F)c12 | 9.1 |  | 
O=C(Nc1cccc(CCO)c1)Nc1ccc(Cl)c(C(F)(F)F)c1 | 230 | 75 | 
O=C(Nc1ccc(Cl)c(C(F)(F)F)c1)Nc1cccc2ccc(NCc3ccccc3)cc12 | 140 | 12 | 
O=C(Nc1ccc(Cl)c(C(F)(F)F)c1)Nc1cccc2c1CC(O)CC2 (racemic) |  | 650 | Fu [3]: 0.28%; bioavailability [4]: 74%
O=C(Nc1ccc(Cl)c(C(F)(F)F)c1)Nc1cccc2c1CC(CO)CC2 (racemic) | 87 |  | 
O=C(Nc1ccc(Cl)c(C(F)(F)F)c1)Nc1ccccc1CCCO | 220 |  | 
CC1CCc2cccc(NC(=O)Nc3ccc(Cl)c(C(F)(F)F)c3)c2C1 (racemic) | 93 |  | 
NCCc1ccccc1NC(=O)Nc1ccc(Cl)c(C(F)(F)F)c1 | > 1000 |  | 
O=C(Nc1ccc(Cl)c(C(F)(F)F)c1)Nc1cccc2cc(O)ccc12 | 18 |  | 
O=C(Nc1ccc(Cl)c(C(F)(F)F)c1)Nc1cccc2nc(C(F)(F)F)[nH]c12 | 32 |  | 
Cc1cccc(NC(=O)Nc2ccc(Cl)c(C(F)(F)F)c2)c1CCO | 16 |  | 
O=C(Nc1ccc(Cl)c(C(F)(F)F)c1)Nc1cccc2nn[nH]c12 | 180 |  | 
CNc1ccc2cccc(NC(=O)Nc3ccc(Cl)c(C(F)(F)F)c3)c2c1 | 30 | 125 | 
O=C(Nc1ccc(Cl)c(C(F)(F)F)c1)Nc1cccc2[nH]ccc12 | 33 | 530 | 
CC(=O)Nc1ccc2cccc(NC(=O)Nc3ccc(Cl)c(C(F)(F)F)c3)c2c1 | 530 | 1590 | 
